Source: US20110229572A1, “DELIVERY OF DRUG COMBINATIONS” (BIOCOMPATIBLES UK Limited, priority 2007, published 2011)
Read-outs that look alike come from different tables or passages of the source.

Tests used:
HepG2 cells = assay: MTS cell viability assay with drug loaded beads; format: cell-based, human; conditions: Example 8, MTS, 72 hr exposure
Description: An MTS assay was also conducted on the wells. At 72 hrs, the media from all wells was cautiously removed and each well washed three times with 200 μl sterile PBS. After adding 100 μl PRF media to each well, 20 μl of the prepared MTS solution (Promega) was also added. After a two hours incubation (37° C., 5% CO2) the plate was read at 490 nm using the plate reader and like the LDH assay, if the reading was too high the samples were diluted (75 μl PRF media: 75 μl samples).
Example 7 was repeated substantially as described, with an extended number of beads of one of the drugs. The results of the MTS assay, i.e. showing cell viability % (log scale) of HepG2 cells after 72 hr exposure, concluded as the mean of 6 samples, is shown in FIG. 19.
An MTS assay was used to assess the synergistic cytotoxic effects of dual loaded beads on HepG2 and PSN1 cells. The rapamycin loaded beads and the doxorubicin loaded beads were the same as those described in Example 7. The dual loaded doxorubicin and rapamycin loaded beads were loaded and analysed as described in Example 4 Method 2 using a 1 ml 60 mg/ml rapamycin solution and 1 ml 37.5 mg/ml doxorubicin solution.
The assay was prepared as described in Example 7 using HepG2 cells and additional plates of PSN1 cells for analysis.
An MTS assay (described in example 7) was conducted after 24, 48 and 72 hrs exposure. […]

[1] = Rapamycin and doxorubicin loading into high AMPS beads by two methods; format: physicochemical; conditions: Method 2
Description: Unloaded high AMPS bead slurry 1 ml was loaded with doxorubicin solution (5 ml of 10.07 mg/ml, target loading 50 mg/ml Bead) overnight. The doxorubicin-loaded beads were washed with 1 ml DMSO 5 times to remove extra water, and 1 ml 60 mg/mL rapamycin DMSO solution was mixed with the doxorubicin beads for about 30 min. Subsequently, following removal of extra rapamycin DMSO solution, the beads were washed with 5 ml saline until no white drug particles were observed.
1 ml Bead slurry was washed with 1 mL DMSO 5 times and mixed with 1 ml 60 mg/ml rapamycin DMSO solution for 30 min. The loaded beads were then washed with 5 ml saline until no further white drug particles were observed. […]
Doxorubicin loading test: The doxorubicin loading was measured by depletion method in either water or DMSO solution. The loading solution was taken and diluted 10 times and measured by UV at 483 nm to determine the concentration of doxorubicin residue in solution. […] The concentration of rapamycin was determined by UV at 279 nm. […]
Doxorubicin loss determination: The doxorubicin loss during DMSO washing of loaded beads before further loading of rapamycin (Method 2) was determined by measuring the accumulated DMSO washing solution in a volumetric flask at 483 nm. […]
Rapamycin and doxorubicin standard curve: The maximum absorbance of rapamycin is at wavelength 279 nm, which is overlapped with doxorubicin absorbance. […]

[2] = Loading of doxorubicin into ibuprofen-loaded low AMPS beads (depletion); format: physicochemical
Description: Ibuprofen and doxorubicin solutions were loaded into low AMPS beads simultaneously. In order to achieve this, one sample of 1 ml of 500-700 μm beads was loaded with ibuprofen (according to examples in WO2004073688). The excess packaging solution was removed using a Pasteur pipette and 2 ml of doxorubicin solution (5 mg.ml^−1) were added. After 24 h, a 50 μl aliquot was removed from the depleted solution and measured by UV at 263 nm and 483 nm. The amount of doxorubicin loaded into beads was calculated by depletion, as a difference between the initial and final amounts in the depleted solution (calculations explained below).
These two assumptions were made for all calculations. All samples were read at both wavelengths (263 nm and 483 nm). Using the absorbance at 483 nm the concentration of doxorubicin in each sample was calculated, then using these concentrations and the standard curve of doxorubicin at 263 nm, the absorbance of doxorubicin at 263 nm was calculated. By subtracting this value from the total absorbance at 263 nm, the concentration of ibuprofen, was calculated using the ibuprofen standard curve.
Initially, lyophilised beads as described in WO2004073688 were loaded with ibuprofen/ethanol solution by solvent evaporation and then rehydrated with water and autoclaved for 15 min at 121° C. […]

[3] = Loading of doxorubicin and irinotecan into the same high AMPS beads (depletion, UV); format: physicochemical; conditions: 1 ml high AMPS beads
Description: Five samples of 500-700 μm High AMPS beads of Example 1 were loaded with doxorubicin and irinotecan following different approaches:
Sample 1: 3.5 mL of irinotecan solution (Campto, Pfizer, 20 mg.mL^−1=70 mg) was loaded into 1 mL of beads for 48 h, to saturate all the sulfonate groups. Then, the depleted solution was removed and the loaded beads were washed with a known volume of deionised water to remove the non-bound drug. The amount of irinotecan loaded into the beads was calculated by depletion, as a difference between the initial and final amounts in the depleted solution and all washings measured by UV at a wavelength of 369 nm. One mL of doxorubicin (Dabur oncology-25 mg.ml^−1) was later added to the same beads and the loading profile determined. […] All solutions were measured by UV at a wavelength of 483 nm wavelength and the amount of drug loaded into the beads determined by depletion. After the beads were loaded and washed with deionised water, in a second step, 1.25 ml of irinotecan solution (20 mg.mL^−1=25 mg) was added to the same beads and the loading profile determined. […]
To determine the loading profiles of all samples, an aliquot of 50 μl was removed from each vial at time 5, 15, 30, 45 min after the addition of each drug, diluted as necessary and read by UV at 483 and 369 nm. […]

[4] = Elution of doxorubicin and irinotecan from the same beads into 200 ml PBS; format: physicochemical; conditions: all samples
Description: After being sized, all samples were eluted. Here, the remaining loading solutions were removed using a Pasteur pipette and the loaded beads were transferred to brown flasks containing 200 ml of PBS (Inverclyde Biologicals). At time 5, 15, 30, 45, 60, 90 min, 2 h, 4 h and 24 h, an aliquot of elution medium (4 ml) was removed and replaced with 4 mL of fresh PBS to maintain the volume. All samples were read by UV at 483 and 369 nm wavelengths, using the corresponding standard curves to calculate the amount eluted at each time point.
These two assumptions were made for all calculations. All samples were read at both 483 nm and 369 nm wavelengths. Using the absorbance and the standard curve of doxorubicin at 483 nm, the concentration of doxorubicin in each sample was calculated and using these concentrations and the standard curve of doxorubicin at 369 nm, the absorbance of doxorubicin at this wavelength was calculated.

[5] = Ibuprofen and irinotecan loading into high AMPS beads; format: physicochemical
Description: Drug loading: The drug loading procedure is shown in FIG. 9, in which the unloaded high AMPS beads were washed with DMSO to remove the water trapped within the hydrogel. A mixture of ibuprofen solubilised in DMSO and castor oil as crystallisation inhibitor were subsequently mixed with the bead slurry, and kept for about 10 minutes. Following the removal of the loading solution, saline was used to wash the loaded beads until no drug particles nor large oil droplets were observed. The irinotecan loading was achieved by simply mixing the ibuprofen-loaded beads with irinotecan solution (10 mg/mL) by roller-mixing overnight. The final loaded beads were kept in the water solution as product.
1). Ibuprofen. The content of loaded ibuprofen was determined by an HPLC method. […] The collected DMSO solution was topped to the mark in a 10 ml volumetric flask, and the concentration of ibuprofen was measured by HPLC. […] The content of irinotecan in loaded beads was measured by depletion method. […] The loading solution was diluted with water and measured by UV at 369 nm. Compared to the standard curve, the concentration of irinotecan left in loading solution can be calculated.
To determinate the concentration of each component in a combined drug solution, the standard curves for absorption of predetermined concentrations of ibuprofen and irinotecan at 263, 272 and 369 nm in water were measured. […]

[6] = Elution of ibuprofen-irinotecan-loaded beads into PBS; format: physicochemical; conditions: after 5 hours, irinotecan alone, combination comparable
Description: The elution of ibuprofen-irinotecan-loaded beads was carried out by mixing 0.24 ml beads with 200 ml PBS (Inverclyde, Bellshill, UK) and roller-mixed on a roller mixer. At certain time point, the solution (5 ml) was taken out for concentration determination by UV and same volume of fresh PBS was added to keep a sink condition.

[7] = cited from earlier work
[8] = P-4135F, cited from earlier work
[9] = cited from earlier work; remark: listed apart in the source
[10] = cited from earlier work; remark: listed apart in the source

Q: Which “cytotoxicity when eluted individually” value (HepG2 cells) does the source give for `COc1cccc2c1C(=O)c1c(O)c3c(c(O)c1C2=O)C[C@@](O)(C(=O)CO)C[C@@H]3O[C@H]1C[C@H](N)[C@H](O)[C@H](C)O1` [doxorubicin] here?
A: The value was “more cytotoxic to the cells than rapamycin”.

Q: And the “doxorubicin loss during DMSO washing before rapamycin loading” value [1]?
A: The value was “about 6.71 mg/ml”.

Q: And the “maximum amount of doxorubicin loaded into ibuprofen loaded beads” value ([2]; 1 ml low AMPS beads, doxorubicin solution 5 mg/ml, 24 h)?
A: The value was 8.3 mg.

Q: What about the “maximum capacity of low AMPS beads for doxorubicin” value ([2]; loaded with this drug alone) of the same compound?
A: The value was about 14 mg/mL.

Q: What about the “maximum loading capacity of the beads” value [3] of the same compound?
A: The value was about 40 mg.

Q: And the doxorubicin released ([4]; in 24 h)?
A: The doxorubicin released was under 25%.

Q: Which “maximum irinotecan loading capacity for unloaded beads” value [5] does the source give for `CCc1c2c(nc3ccc(OC(=O)N4CCC(N5CCCCC5)CC4)cc13)-c1cc3c(c(=O)n1C2)COC(=O)[C@]3(O)CC` [irinotecan] here?
A: The value was 50 to 60 mg/mL.

Q: And the irinotecan loading efficiency ([5]; unloaded beads, below maximum loading capacity)?
A: The irinotecan loading efficiency was “above 98%”.

Q: And the irinotecan eluted [6]?
A: Its irinotecan eluted is about 100%.

Q: What about the “maximum loading capacity of the beads” value [3] of the same compound?
A: The value was 52 mg.

Q: And the irinotecan released ([4]; in <4 h)?
A: The irinotecan released was over 99 % mg.

Q: Which results are given for heparin?
A: initial burst release from the co-matrix ([7]; uncoated): 32.7%; initial burst release from the co-matrix ([7]; with polyethylene glycol coatings, for 24 hr): 25.4%

Q: With `O=c1[nH]cc(F)c(=O)[nH]1` [Sample 5-FU, 5-fluorouracil] as the compound, how does the 5-FU release ([8]; pH 6.8, within 4 h) read?
A: The 5-FU release was “lower than 25%”.

Q: What about the “time of nearly immediate release” value ([8]; pH 7.4) of the same compound?
A: Its value is at most 15 min.

Q: What about the encapsulation efficiency ([9]; PLGA microparticles) of the same compound?
A: The encapsulation efficiency was 19%.

Q: And the encapsulation efficiency ([9]; encapsulated with Paclitaxel)?
A: The encapsulation efficiency was 30%.

Q: What about the encapsulation rate ([10]; Eudragit P-4135F) of the same compound?
A: The encapsulation rate was 48.3±2.0%.

Q: What about the encapsulation rate ([10]; Eudragit RS100) of the same compound?
A: Its encapsulation rate is 60.3±9.7%.

Q: Which results are given for `Nc1nc2c(c(=O)[nH]1)N(C=O)C(CNc1ccc(C(=O)N[C@@H](CCC(=O)O)C(=O)O)cc1)CN2` (some centres unmarked) [LV, leucovorin]?
A: initial drug loss ([8]; pH 6.8): about 60%; time to complete release ([8]; pH 6.8): ≤ 2 h; encapsulation rate ([10]; Eudragit P-4135F): 55.4±2.7%; encapsulation rate ([10]; Eudragit RS100): 81.4±8.6%
